Laboratory results from US20250250227A1, “AMINO LIPID COMPOUND, PREPARATION METHOD THEREFOR, COMPOSITION THEREOF AND USE THEREOF” (SHENZHEN SHENXIN BIOTECHNOLOGY CO., LTD., priority 2022, published 2025).

Experiments:
Female BALB/c mice [1] = experiment: Performance evaluation of delivery to lymph nodes of Fluc mRNA lipid nanoparticle (IVIS); format: in vivo; details: Fluc mRNA LNP; for Expression intensity (lymph nodes): 75 μL IV, 6 hours after injection, IVIS
Method: (§1) Animal preparation: Female BALB/c mice of 6-8 weeks old were selected and raised in an SPF grade breeding room. Animal testing was conducted in strict accordance with the guidelines of national health institutions and animal ethics requirements.
In vivo Delivery: prior to injection of the test LNP formulations, the LNP formulations were gently and repeatedly inverted to thoroughly mix the formulation samples. A corresponding amount of the formulation samples were aspirated with a 1 ml insulin syringe, and the LNP formulations were injected by tail vein injection (IV), with 3 mice per formulation. Each mouse was injected with 75 μL the luciferase mRNA (Fluc mRNA)-encapsulating lipid nanoparticle formulation prepared in Experimental Example 1.
6 hours after injection of LNP formulations, mice were injected with 200 μL D-Luciferin luciferase developing substrate (Catalog No. 122799; Manufacturer: Perkin Elmer). After the substrate was injected, the mice were anesthetized with isoflurane inhalation, and the injection time of luciferase developing substrate was recorded.
The intensity of fluorescence expression induced by the lipid nanoparticle encapsulating luciferase mRNA (Fluc mRNA) with a representative amino lipid compound is shown in Table 6, with SM-102 as a control.

Female BALB/c mice [2] = experiment: In vivo safety of hEPO mRNA lipid nanoparticle: serum alanine aminotransferase (ALT) enzyme activity; details: hEPO mRNA LNP, 300 μL IV, serum 12 h after injection; FIG. 1
Method: A human erythropoietin mRNA (hEPO mRNA)-encapsulating lipid nanoparticle formulation was prepared according to the method as described in Experimental Example 1, with replacing the luciferase mRNA (Fluc mRNA) with human erythropoietin mRNA (hEPO mRNA), with a concentration of hEPO mRNA of 0.2 g/L, a mass ratio of hEPO mRNA to Lipid of 1:10, a particle size of 90-130 nm, and an encapsulation efficiency of above 90% or higher.
as §1
In vivo Delivery: Prior to injection of the test LNP formulations, the LNP formulations were gently and repeatedly inverted to thoroughly mix the formulation samples. A corresponding amount of the formulation samples were aspirated with a 1 ml insulin syringe, and the LNP formulations were injected by tail vein injection (IV), with 5 mice per formulation. Each mouse was injected with 300 μL of the human erythropoietin mRNA (hEPO mRNA)-encapsulating lipid nanoparticle formulation.
Serum acquisition: Blood samples of mice were collected 12 h after injection, placed in tubes without anticoagulants, and naturally coagulated at room temperature for 30-60 min, and then centrifuged at a speed of 3500 rpm for 10 min to obtain the supernatant, which was the serum.
The detection of alanine transaminase was carried out according to instructions of the kit (Nanjing Jiancheng Bioengineering Institute, Catalog. No. C009-2-1), and a standard curve was made using the standard provided in the kit. D-PBS was used in the experiment, which was purchased from Sangon Biotech (Shanghai) Co., Ltd., Catalog No. E607009-0600.
The method of detection of enzyme activity of alanine aminotransferase (ALT) in serum of the mice is as follows:
• (1) Enzymatic reaction: 0, 2, 4, 6, 8 and 10 μL of […] sodium pyruvate standard solution were sequentially added to 5 μL of 0.1 mol/L phosphate buffer, and the volume was supplemented to 25 μL with a matrix solution, and repeatedly aspirating and spitting with a pipette for mixing well; • (2) Addition reaction: 20 μL 2,4-dinitrophenylhydrazine solution was added to all reaction wells in (1), mixed by aspirating and spitting, and then placed in an incubator at 37° C. to react for 20 min; • (3) Developing: 200 μL of 0.4 mol/L NaOH solution was added to all reaction wells in (2) to stop the reaction, mixed by aspirating and spitting, and incubated at room temperature for 15 min. The OD value of each well was measured at 510 nm in a microplate reader; and • (4) Data processing of standard curve: The corresponding absolute OD value for each well was obtained by subtracting the OD value for 0 μL well from the measured OD value for each well, the corresponding ALT Karmen units being 0, 28, 57, 97, 150 and 200 U/L, respectively. The standard curve was obtain by taking the absolute OD value as the abscissa and the corresponding Karmen unit as the ordinate.
• (1) Reagent preparation: an ALT matrix solution was placed in an incubator at 37° C. for preheating; • (2) Enzymatic reaction: 5 μL diluted serum was aspirated and added to a 96-well plate, then 20 μL matrix solution was added to the corresponding sample well and mixed by repeatedly aspirating and spitting to avoid bubbling, and then placed in an incubator at 37° C. for 30 min; • (3) Addition reaction: 20 μL 2,4-dinitrophenylhydrazine was added to all reaction wells in (2), mixed by aspirating and spitting, and then reacted in an incubator at 37° C. for 20 min; • (4) Developing: 200 μL of 0.4 mol/L NaOH solution was added to all reaction wells in (3) to stop the reaction, mixed by aspirating and spitting, and then incubated at room temperature for 15 min. […]

Female BALB/c mice [3] = experiment: IFN-γ Elispot cellular immunity test, spleen lymphocytes of mice immunized with IN002.5.1 mRNA LNP; format: in vivo; details: 50 μL IM, spleen on 7th day after immunization, FIG. 2-4
Method: An IN002.5.1 mRNA-encapsulating lipid nanoparticle formulation was prepared according to the method as described in Experimental Example 1, with replacing the luciferase mRNA (Fluc mRNA) with IN002.5.1 mRNA, with a concentration of IN002.5.1 mRNA of 0.2 g/L, a mass ratio of IN002.5.1 mRNA to Lipid of 1:10, a particle size of 80-130 nm, and an encapsulation efficiency of 90% or higher.
The sequence of IN002.5.1 mRNA is one obtained by replacing all uracil (u) in SEQ ID NO. 1 with N1-methylpseudouridine. Of note is that the t (thymine) in the RNA sequence, SEQ ID NO. 1, in the Sequence Listing is actually u (uracil), according to the WIPO Standard ST. 26 for nucleotide or amino acid sequence listing.
as §1
Immunization of mice: Prior to injection of the test LNP formulations, the LNP formulations were gently and repeatedly inverted to thoroughly mix the formulation samples. A corresponding amount of the formulation samples were aspirated with a 1 ml insulin syringe, and the LNP formulations were injected by intramuscular injection (IM) […], with 8 mice per formulation. Each mouse was injected with 50 μL of the IN002.5.1 mRNA encapsulating lipid nanoparticle formulation.
Spleen acquisition: On the 7th day after immunization, 3 to 4 mice from each LNP immunization group were selected and euthanized, and their spleens were acquired in a super clean bench.
Isolation of lymphocytes: The spleens of mice were taken out in a super clean bench. 7 mL of mouse lymphocyte separation solution was added to a 6-well cell culture plate. Mouse spleen cells were ground with a syringe piston, and the suspension of the spleen cells was filtered through a cell screen and immediately transferred to a 15 mL centrifuge tube. […] RPMI 1640 medium was slowly added with keeping the liquid interface distinct. After centrifugation at 800 g with a horizontal rotor at room temperature for 30 minutes, a clear stratification can be visible. The lymphocyte layer was aspirated, then added with 10 mL RPMI 1640 medium, and inverted for washing. The cells were collected by centrifugation at 250 g for 10 min at room temperature, and the red blood cells were lysed. After completing lysis of red blood cells, the supernatant was poured, and the cells were resuspended in culture medium and counted.
Addition of stimulant and culture of lymphocyte: RPMI-1640 medium containing 10% fetal bovine serum was used to activate the pre-coated plate. After standing at room temperature for at least 30 min, the medium was removed, and a cell suspension at adjusted concentration was added ([…]). The medium used to resuspend the cells was used as a background negative control. 10 μL positive stimulant working solution (PMA+Ionomycin (dissolved in DPBS) was added to a positive control well; […] medium used to resuspend the cells was added to a negative control well; 10 µL/well of a peptide library diluted with RPMI 1640 was added to experimental wells. After all samples and the stimulant were added, the plate was covered, incubated in an incubator with 5% CO2 at 37° C. for 16-24 h.
Elispot detection after culture: The cells and the culture medium in the wells were dumped, and the wells were lysed with 200 μL/well of ice-cold deionized water at 4° C. for 10 min. The liquid in the wells were shaken out, and the wells were washed five times with PBS buffer. The wells were incubated with 100 μL/well of 1 μg/ml detection antibody for 2 h at room temperature; and after washing the plate 5 times with PBS, the wells were incubated with 100 μL/well of 1000-fold diluted enzyme labeled avidin (Streptavidin-HRP) for 1 h at room temperature. […]

Female BALB/c mice [4] = experiment: Humoral immunity test for total binding IgG antibody (ELISA, SARS-COV-2 antigen protein) in serum of immunized mice; format: in vivo; details: IN002.5.1 mRNA LNP, 50 μL IM, serum on 14th day after immunization; FIG. 5-6
[5] = Preparation and characterisation of mRNA-encapsulating lipid nanoparticle (encapsulation efficiency, particle size); format: physicochemical; details: LNP encapsulating Fluc mRNA; Lipid:DSPC:CHO-HP:M-DMG-2000 48:10:40.5:1.5
Outline: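 Fluc mRNA in sodium acetate buffer mixed with ethanolic amino lipid:DSPC:CHO-HP:M-DMG-2000 (48:10:40.5:1.5 molar) by microfluidics, mRNA:lipid mass ratio 1:10, then dialysed 2 h against Tris-8% sucrose and 0.22 μm filtered. Final mRNA 0.2 g/L; particle size and encapsulation efficiency measured.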

Female BALB/c mice [6] = experiment: Performance evaluation of in vivo delivery of Fluc mRNA lipid nanoparticle (IVIS, body and organs); details: Fluc mRNA LNP; for Liver (fluorescence expression intensity) / Spleen (fluorescence expression intensity): 75 μL IV; for Liver (fluorescence expression intensity) / Spleen (fluorescence expression intensity) / Total flux (fluorescence expression intensity) / (Spleen/Total Flux) * 100%: 6 hours after injection; for Liver (fluorescence expression intensity) / Spleen (fluorescence expression intensity) / Total flux (fluorescence expression intensity): IVIS; for Total flux (fluorescence expression intensity): 75 μL tail vein injection (IV); for (Spleen/Total Flux) * 100% / Multiple of spleen delivery/total delivery to amino lipid compound 118: IV; for Multiple of spleen delivery/total delivery to amino lipid compound 118: relative to amino lipid compound 118
Outline: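 Female BALB/c mice, 6-8 weeks, received 75 μL Fluc mRNA-LNP by tail-vein injection, 3 mice per formulation. At 6 h, 200 μL D-luciferin was injected, mice were anesthetized with isoflurane, and IVIS bioluminescence was imaged in body and organs.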

CCCCCCC(CCCCCC)OC(=O)CCCCCCCCC(CCCCCCCCC(=O)OC(CCCCCC)CCCCCC)OC(=O)N(CCCCCC(=O)OCC)CCCN(C)C [Compound 250]
Expression intensity (lymph nodes) (Female BALB/c mice [1]): 1.77E+06
Delivery effect on lymph nodes compared to SM102 (Female BALB/c mice [1]; IV, statement on Table 6): better delivery effect on lymph nodes

CCCCCCC(CCCCCC)OC(=O)CCCCCCCCC(CCCCCCCCC(=O)OC(CCCCCC)CCCCCC)OC(=O)N(CCCN(C)C)CCC(=O)OCCC [Compound 263]
ALT enzyme activity (Karmen unit) compared to ALC0315 and SM-102 (Female BALB/c mice [2]): significantly lower ALT enzyme activity
Cellular immunity effect (IFN-γ Elispot) compared to ALC0315 (Female BALB/c mice [3]): better cellular immunity effect
Humoral immunity effect (IgG titer) compared to ALC0315 (Female BALB/c mice [4]): better humoral immunity effect

CCCCCCC(CCCCCC)OC(=O)CCCCCCCCC(CCCCCCCCC(=O)OC(CCCCCC)CCCCCC)OC(=O)N(CCCN(C)C)CCC(=O)OCCCCC [Compound 265]
Encapsulation efficiency [5]: 94.59%
Liver (fluorescence expression intensity) (Female BALB/c mice [6]): 7.57E+07
Spleen (fluorescence expression intensity) (Female BALB/c mice [6]): 1.91E+06
Total flux (fluorescence expression intensity) (Female BALB/c mice [6]): 3.93E+08
(Spleen/Total Flux) * 100% (Female BALB/c mice [6]): 0.49%
Multiple of spleen delivery/total delivery to amino lipid compound 118 (Female BALB/c mice [6]): 1.43
Cellular immunity effect (IFN-γ Elispot) compared to ALC0315 (Female BALB/c mice [3]): better cellular immunity effect
Humoral immunity effect (IgG titer) compared to ALC0315 (Female BALB/c mice [4]): better humoral immunity effect

CCCCCCOC(=O)CCN(CCCN(C)C)C(=O)OC(CCCCCCCCC(=O)OC(CCCCCC)CCCCCC)CCCCCCCCC(=O)OC(CCCCCC)CCCCCC [Compound 266]
Encapsulation efficiency [5]: 94.26%
Liver (fluorescence expression intensity) (Female BALB/c mice [6]): 8.09E+07
Spleen (fluorescence expression intensity) (Female BALB/c mice [6]): 1.60E+06
Total flux (fluorescence expression intensity) (Female BALB/c mice [6]): 2.67E+08
(Spleen/Total Flux) * 100% (Female BALB/c mice [6]): 0.60%
Multiple of spleen delivery/total delivery to amino lipid compound 118 (Female BALB/c mice [6]): 1.76
ALT enzyme activity (Karmen unit) compared to ALC0315 and SM-102 (Female BALB/c mice [2]): significantly lower ALT enzyme activity
Humoral immunity effect (IgG titer) compared to ALC0315 (Female BALB/c mice [4]): better humoral immunity effect

CCCCCCC(CCCCCC)OC(=O)CCCCCCCCC(CCCCCCCCC(=O)OC(CCCCCC)CCCCCC)OC(=O)N(CCCN(C)C)CC(=O)OCCCCC [Compound 271]
Encapsulation efficiency [5]: 93.59%
Liver (fluorescence expression intensity) (Female BALB/c mice [6]): 7.57E+07
Spleen (fluorescence expression intensity) (Female BALB/c mice [6]): 4.76E+06
Total flux (fluorescence expression intensity) (Female BALB/c mice [6]): 2.68E+08
(Spleen/Total Flux) * 100% (Female BALB/c mice [6]): 1.78%
Multiple of spleen delivery/total delivery to amino lipid compound 118 (Female BALB/c mice [6]): 5.22
Cellular immunity effect (IFN-γ Elispot) compared to ALC0315 (Female BALB/c mice [3]): better cellular immunity effect
Humoral immunity effect (IgG titer) compared to ALC0315 (Female BALB/c mice [4]): better humoral immunity effect

CCCCCCCCOC(=O)CN(CCCN(C)C)C(=O)OC(CCCCCCCCC(=O)OC(CCCCCC)CCCCCC)CCCCCCCCC(=O)OC(CCCCCC)CCCCCC [Compound 274]
Encapsulation efficiency [5]: 93.06%
Liver (fluorescence expression intensity) (Female BALB/c mice [6]): 7.08E+07
Spleen (fluorescence expression intensity) (Female BALB/c mice [6]): 2.60E+06
Total flux (fluorescence expression intensity) (Female BALB/c mice [6]): 3.25E+08
(Spleen/Total Flux) * 100% (Female BALB/c mice [6]): 0.80%
Multiple of spleen delivery/total delivery to amino lipid compound 118 (Female BALB/c mice [6]): 2.35
Cellular immunity effect (IFN-γ Elispot) compared to ALC0315 (Female BALB/c mice [3]): better cellular immunity effect
Humoral immunity effect (IgG titer) compared to ALC0315 (Female BALB/c mice [4]): better humoral immunity effect

CCCCCCCCCCCOC(=O)CCCCCN(CCO)CCCCCCCC(=O)OC(CCCCCCCC)CCCCCCCC [SM-102, reference compound]
Expression intensity (lymph nodes) (Female BALB/c mice [1]): 4.94E+05
